Laboratory results published in PMC8632988, “Inhibition of SYK and cSrc kinases can protect bone and cartilage in preclinical models of osteoarthritis and rheumatoid arthritis” (Scientific Reports, 2021).

Assays:
Test in all cases: Kinase selectivity profile assay
Assay type in all cases: biochemical
[1] = biological target: T1, CDK7/cyclin H (Homo sapiens, UniProt P50613); settings: 500 nM; relative to DMSO; read-out: Residual enzymatic activity
T1 construct: purchased Reaction Biology Corporation
In short: (§1)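 Radiometric kinase assay run by a standard protocol. Unbound phosphate was removed by washing filters in phosphoric acid, and product radioactivity gave percent remaining kinase activity versus DMSO vehicle reactions. Run in duplicate.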

[2] = biological target: T2, PKCd (Homo sapiens, UniProt Q05655); settings: 500 nM; relative to DMSO; read-out: Residual enzymatic activity
T2 construct: purchased Reaction Biology Corporation
In short: as §1

[3] = biological target: T3, ERBB2/HER2 (Homo sapiens, UniProt P04626); settings: 500 nM; relative to DMSO; read-out: Residual enzymatic activity
T3 construct: purchased Reaction Biology Corporation
In short: as §1

[4] = biological target: T4, DAPK1 (Homo sapiens, UniProt P53355); settings: 500 nM; relative to DMSO; read-out: Residual enzymatic activity
T4 construct: purchased Reaction Biology Corporation
In short: as §1

[5] = biological target: T5, ARAF (Homo sapiens, UniProt P10398); settings: 500 nM; relative to DMSO; read-out: Residual enzymatic activity
T5 construct: purchased Reaction Biology Corporation
In short: as §1

[6] = biological target: T6, LATS1 (Homo sapiens, UniProt O95835); settings: 500 nM; relative to DMSO; read-out: Residual enzymatic activity
T6 construct: purchased Reaction Biology Corporation
In short: as §1

[7] = biological target: T7, FLT1/VEGFR1 (Homo sapiens, UniProt P17948); settings: 500 nM; relative to DMSO; read-out: Residual enzymatic activity
T7 construct: purchased Reaction Biology Corporation
In short: as §1

[8] = biological target: T8, MLCK2/MYLK2 (Homo sapiens, UniProt Q9H1R3); settings: 500 nM; relative to DMSO; read-out: Residual enzymatic activity
T8 construct: purchased Reaction Biology Corporation
In short: as §1

[9] = biological target: T9, CLK2 (Homo sapiens, UniProt P49760); settings: 500 nM; relative to DMSO; read-out: Residual enzymatic activity
T9 construct: purchased Reaction Biology Corporation
In short: as §1

[10] = biological target: T10, GCK/MAP4K2 (Homo sapiens, UniProt Q12851); settings: 500 nM; relative to DMSO; read-out: Residual enzymatic activity
T10 construct: purchased Reaction Biology Corporation
In short: as §1

[11] = biological target: T11, RSK4 (Homo sapiens, UniProt Q9UK32); settings: 500 nM; relative to DMSO; read-out: Residual enzymatic activity
T11 construct: purchased Reaction Biology Corporation
In short: as §1

[12] = biological target: T12, HGK/MAP4K4 (Homo sapiens, UniProt O95819); settings: 500 nM; relative to DMSO; read-out: Residual enzymatic activity
T12 construct: purchased Reaction Biology Corporation
In short: as §1

[13] = biological target: T13, CLK4 (Homo sapiens, UniProt Q9HAZ1); settings: 500 nM; relative to DMSO; read-out: Residual enzymatic activity
T13 construct: purchased Reaction Biology Corporation
In short: as §1

[14] = biological target: T14, p70S6K/RPS6KB1 (Homo sapiens, UniProt P23443); settings: 500 nM; relative to DMSO; read-out: Residual enzymatic activity
T14 construct: purchased Reaction Biology Corporation
T14 sequence (P23443 whole entry): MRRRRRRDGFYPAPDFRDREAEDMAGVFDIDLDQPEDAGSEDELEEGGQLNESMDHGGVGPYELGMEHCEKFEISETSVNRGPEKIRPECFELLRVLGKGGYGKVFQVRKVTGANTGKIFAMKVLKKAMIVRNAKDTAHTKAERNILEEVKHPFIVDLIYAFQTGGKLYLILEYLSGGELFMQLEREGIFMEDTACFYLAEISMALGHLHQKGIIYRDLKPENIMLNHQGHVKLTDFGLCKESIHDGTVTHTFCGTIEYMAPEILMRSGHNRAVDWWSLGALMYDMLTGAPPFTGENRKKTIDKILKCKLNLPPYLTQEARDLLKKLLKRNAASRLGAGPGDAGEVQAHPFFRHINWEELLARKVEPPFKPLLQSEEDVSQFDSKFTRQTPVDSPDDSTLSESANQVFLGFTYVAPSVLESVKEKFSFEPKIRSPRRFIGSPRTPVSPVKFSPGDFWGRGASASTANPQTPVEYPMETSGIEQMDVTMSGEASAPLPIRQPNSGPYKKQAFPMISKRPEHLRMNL
In short: as §1

[15] = biological target: T15, GRK2 (Homo sapiens, UniProt P25098); settings: 500 nM; relative to DMSO; read-out: Residual enzymatic activity
T15 construct: purchased Reaction Biology Corporation
In short: as §1

[16] = biological target: T16, CAMKK1 (Homo sapiens, UniProt Q8N5S9); settings: 500 nM; relative to DMSO; read-out: Residual enzymatic activity
T16 construct: purchased Reaction Biology Corporation
T16 sequence (Q8N5S9 whole entry): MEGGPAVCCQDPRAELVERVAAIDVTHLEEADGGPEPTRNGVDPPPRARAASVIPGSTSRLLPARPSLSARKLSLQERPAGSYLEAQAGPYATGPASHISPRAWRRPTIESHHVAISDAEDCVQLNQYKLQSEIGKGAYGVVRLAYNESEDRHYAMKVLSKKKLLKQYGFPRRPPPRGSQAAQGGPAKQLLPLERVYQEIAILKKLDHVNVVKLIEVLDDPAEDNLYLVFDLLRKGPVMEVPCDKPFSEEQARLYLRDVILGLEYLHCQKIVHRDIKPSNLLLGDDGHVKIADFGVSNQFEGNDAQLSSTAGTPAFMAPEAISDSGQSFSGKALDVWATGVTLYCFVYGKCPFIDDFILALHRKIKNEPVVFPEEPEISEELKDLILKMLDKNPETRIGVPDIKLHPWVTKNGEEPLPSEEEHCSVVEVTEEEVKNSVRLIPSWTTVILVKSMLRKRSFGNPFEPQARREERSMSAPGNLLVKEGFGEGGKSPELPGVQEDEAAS
In short: as §1

[17] = biological target: T17, NEK9 (Homo sapiens, UniProt Q8TD19); settings: 500 nM; relative to DMSO; read-out: Residual enzymatic activity
T17 construct: purchased Reaction Biology Corporation
In short: as §1

[18] = biological target: T18, DMPK (Homo sapiens, UniProt Q09013); settings: 500 nM; relative to DMSO; read-out: Residual enzymatic activity
T18 construct: purchased Reaction Biology Corporation
In short: as §1

[19] = biological target: T19, P38b/MAPK11 (Homo sapiens, UniProt Q15759); settings: 500 nM; relative to DMSO; read-out: Residual enzymatic activity
T19 construct: purchased Reaction Biology Corporation
In short: as §1

[20] = biological target: T20, CK2a (Homo sapiens, UniProt P68400); settings: 500 nM; relative to DMSO; read-out: Residual enzymatic activity
T20 construct: purchased Reaction Biology Corporation
T20 sequence (P68400 whole entry): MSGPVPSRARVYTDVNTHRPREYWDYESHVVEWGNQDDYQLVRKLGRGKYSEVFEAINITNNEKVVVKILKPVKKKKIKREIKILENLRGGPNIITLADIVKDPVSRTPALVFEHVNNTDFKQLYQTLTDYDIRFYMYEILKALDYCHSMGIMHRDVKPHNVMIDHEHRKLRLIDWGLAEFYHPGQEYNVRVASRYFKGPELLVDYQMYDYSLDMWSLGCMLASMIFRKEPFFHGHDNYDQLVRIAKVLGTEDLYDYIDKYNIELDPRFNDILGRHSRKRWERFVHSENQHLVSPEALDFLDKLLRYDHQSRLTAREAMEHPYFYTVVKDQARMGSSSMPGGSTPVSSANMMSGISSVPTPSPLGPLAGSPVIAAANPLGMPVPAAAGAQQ
In short: as §1

[21] = biological target: T21, GRK4 (Homo sapiens, UniProt P32298); settings: 500 nM; relative to DMSO; read-out: Residual enzymatic activity
T21 construct: purchased Reaction Biology Corporation
T21 sequence (P32298 whole entry): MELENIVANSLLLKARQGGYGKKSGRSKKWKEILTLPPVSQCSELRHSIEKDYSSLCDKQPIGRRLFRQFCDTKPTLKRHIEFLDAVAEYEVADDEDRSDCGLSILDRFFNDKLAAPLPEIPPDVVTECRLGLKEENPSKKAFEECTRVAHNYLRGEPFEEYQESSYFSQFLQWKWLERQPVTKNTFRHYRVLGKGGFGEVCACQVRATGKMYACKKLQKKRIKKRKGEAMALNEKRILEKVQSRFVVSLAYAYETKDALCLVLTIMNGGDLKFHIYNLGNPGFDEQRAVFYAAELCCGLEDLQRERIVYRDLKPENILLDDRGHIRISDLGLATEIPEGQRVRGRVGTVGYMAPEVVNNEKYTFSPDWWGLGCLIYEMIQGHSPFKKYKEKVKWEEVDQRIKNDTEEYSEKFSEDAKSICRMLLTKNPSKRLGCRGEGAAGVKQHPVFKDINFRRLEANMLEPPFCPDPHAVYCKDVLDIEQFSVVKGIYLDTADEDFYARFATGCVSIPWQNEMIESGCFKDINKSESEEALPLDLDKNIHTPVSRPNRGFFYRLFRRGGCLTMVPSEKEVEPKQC
In short: as §1

[22] = biological target: T22, RIPK3 (Homo sapiens, UniProt Q9Y572); settings: 500 nM; relative to DMSO; read-out: Residual enzymatic activity
T22 construct: purchased Reaction Biology Corporation
T22 sequence (Q9Y572 whole entry): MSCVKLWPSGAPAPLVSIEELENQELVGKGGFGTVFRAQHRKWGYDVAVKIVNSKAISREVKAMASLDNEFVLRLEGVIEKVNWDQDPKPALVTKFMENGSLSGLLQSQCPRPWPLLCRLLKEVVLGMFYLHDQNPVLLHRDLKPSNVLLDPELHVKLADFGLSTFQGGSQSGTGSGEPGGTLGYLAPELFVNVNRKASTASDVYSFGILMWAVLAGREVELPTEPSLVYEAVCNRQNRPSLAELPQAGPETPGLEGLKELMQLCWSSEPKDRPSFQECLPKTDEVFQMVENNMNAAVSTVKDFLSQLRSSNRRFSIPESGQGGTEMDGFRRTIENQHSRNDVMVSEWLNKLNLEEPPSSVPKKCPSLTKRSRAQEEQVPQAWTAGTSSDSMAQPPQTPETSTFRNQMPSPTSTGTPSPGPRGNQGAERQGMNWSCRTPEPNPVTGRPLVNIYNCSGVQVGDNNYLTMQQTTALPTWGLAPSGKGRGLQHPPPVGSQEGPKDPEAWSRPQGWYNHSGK
In short: as §1

[23] = biological target: T23, TEC (Homo sapiens, UniProt P42680); settings: 500 nM; relative to DMSO; read-out: Residual enzymatic activity
T23 construct: purchased Reaction Biology Corporation
In short: as §1

[24] = biological target: T24, SGK2 (Homo sapiens, UniProt Q9HBY8); settings: 500 nM; relative to DMSO; read-out: Residual enzymatic activity
T24 construct: purchased Reaction Biology Corporation
In short: as §1

[25] = biological target: T25, MEK2 (Homo sapiens, UniProt P36507); settings: 500 nM; relative to DMSO; read-out: Residual enzymatic activity
T25 construct: purchased Reaction Biology Corporation
In short: as §1

[26] = biological target: T26, PDK1/PDPK1 (Homo sapiens, UniProt O15530); settings: 500 nM; relative to DMSO; read-out: Residual enzymatic activity
T26 construct: purchased Reaction Biology Corporation
T26 sequence (O15530 whole entry): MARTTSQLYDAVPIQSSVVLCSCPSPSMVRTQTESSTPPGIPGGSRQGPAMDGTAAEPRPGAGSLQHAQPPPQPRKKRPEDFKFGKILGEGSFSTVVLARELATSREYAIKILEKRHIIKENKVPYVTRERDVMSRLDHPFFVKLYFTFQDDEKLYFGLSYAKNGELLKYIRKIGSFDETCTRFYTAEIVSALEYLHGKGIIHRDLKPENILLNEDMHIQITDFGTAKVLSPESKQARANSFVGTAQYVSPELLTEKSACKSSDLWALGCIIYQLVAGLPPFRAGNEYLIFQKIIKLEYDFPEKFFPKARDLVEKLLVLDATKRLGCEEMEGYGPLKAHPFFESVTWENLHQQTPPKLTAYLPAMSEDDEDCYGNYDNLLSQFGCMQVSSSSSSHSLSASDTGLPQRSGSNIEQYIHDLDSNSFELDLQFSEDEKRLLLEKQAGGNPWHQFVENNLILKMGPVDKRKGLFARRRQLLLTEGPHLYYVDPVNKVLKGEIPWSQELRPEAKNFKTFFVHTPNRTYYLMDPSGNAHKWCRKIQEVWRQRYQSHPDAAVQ
In short: as §1

[27] = biological target: T27, HIPK3 (Homo sapiens, UniProt Q9H422); settings: 500 nM; relative to DMSO; read-out: Residual enzymatic activity
T27 construct: purchased Reaction Biology Corporation
In short: as §1

[28] = biological target: T28, EPHA5 (Homo sapiens, UniProt P54756); settings: 500 nM; relative to DMSO; read-out: Residual enzymatic activity
T28 construct: purchased Reaction Biology Corporation
In short: as §1

[29] = biological target: T29, TESK1 (Homo sapiens, UniProt Q15569); settings: 500 nM; relative to DMSO; read-out: Residual enzymatic activity
T29 construct: purchased Reaction Biology Corporation
In short: as §1

[30] = biological target: T30, PIM2 (Homo sapiens, UniProt Q9P1W9); settings: 500 nM; relative to DMSO; read-out: Residual enzymatic activity
T30 construct: purchased Reaction Biology Corporation
In short: as §1

[31] = biological target: T31, ERBB4/HER4 (Homo sapiens, UniProt Q15303); settings: 500 nM; relative to DMSO; read-out: Residual enzymatic activity
T31 construct: purchased Reaction Biology Corporation
In short: as §1

[32] = biological target: T32, ERK7/MAPK15 (Homo sapiens, UniProt Q8TD08); settings: read-out: Residual enzymatic activity
T32 construct: purchased Reaction Biology Corporation
In short: as §1

[33] = biological target: T33, EPHB3 (Homo sapiens, UniProt P54753); settings: 500 nM; relative to DMSO; read-out: Residual enzymatic activity
T33 construct: purchased Reaction Biology Corporation
In short: as §1

[34] = biological target: T34, BTK (Homo sapiens, UniProt Q06187); settings: 500 nM; relative to DMSO; read-out: Residual enzymatic activity
T34 construct: purchased Reaction Biology Corporation
In short: as §1

[35] = biological target: T35, TYK2 (Homo sapiens, UniProt P29597); settings: 500 nM; relative to DMSO; read-out: Residual enzymatic activity
T35 construct: purchased Reaction Biology Corporation
T35 sequence (P29597 whole entry): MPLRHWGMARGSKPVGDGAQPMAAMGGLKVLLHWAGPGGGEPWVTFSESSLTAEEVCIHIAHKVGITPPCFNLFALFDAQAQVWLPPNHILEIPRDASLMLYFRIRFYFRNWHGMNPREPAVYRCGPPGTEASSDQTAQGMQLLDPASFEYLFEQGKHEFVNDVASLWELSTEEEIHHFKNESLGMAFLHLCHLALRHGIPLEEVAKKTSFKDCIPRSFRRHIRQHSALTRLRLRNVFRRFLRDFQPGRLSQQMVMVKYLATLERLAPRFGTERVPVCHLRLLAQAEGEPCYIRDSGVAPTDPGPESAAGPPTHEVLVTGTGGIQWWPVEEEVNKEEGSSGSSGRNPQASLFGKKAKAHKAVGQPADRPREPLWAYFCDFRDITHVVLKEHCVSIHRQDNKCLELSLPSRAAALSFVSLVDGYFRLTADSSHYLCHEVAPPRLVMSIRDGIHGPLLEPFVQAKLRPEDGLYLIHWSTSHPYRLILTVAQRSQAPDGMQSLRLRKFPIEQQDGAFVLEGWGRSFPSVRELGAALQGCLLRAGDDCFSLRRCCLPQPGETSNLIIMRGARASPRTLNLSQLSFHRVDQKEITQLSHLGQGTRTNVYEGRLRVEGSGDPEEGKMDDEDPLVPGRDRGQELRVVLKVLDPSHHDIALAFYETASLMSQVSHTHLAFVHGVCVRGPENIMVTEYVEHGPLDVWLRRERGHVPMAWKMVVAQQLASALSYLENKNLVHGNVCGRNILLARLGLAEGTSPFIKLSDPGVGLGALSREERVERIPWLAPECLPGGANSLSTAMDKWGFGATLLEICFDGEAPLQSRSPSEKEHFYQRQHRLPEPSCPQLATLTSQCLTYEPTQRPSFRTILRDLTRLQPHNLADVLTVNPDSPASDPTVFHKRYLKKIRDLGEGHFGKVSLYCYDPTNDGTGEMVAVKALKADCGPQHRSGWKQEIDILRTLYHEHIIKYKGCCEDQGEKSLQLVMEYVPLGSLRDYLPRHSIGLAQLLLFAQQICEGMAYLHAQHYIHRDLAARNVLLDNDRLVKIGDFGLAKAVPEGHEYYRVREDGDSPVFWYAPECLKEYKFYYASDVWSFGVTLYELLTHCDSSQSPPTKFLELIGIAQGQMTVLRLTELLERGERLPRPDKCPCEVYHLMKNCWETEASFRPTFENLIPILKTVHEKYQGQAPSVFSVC
In short: as §1

[36] = biological target: T36, EPHA8 (Homo sapiens, UniProt P29322); settings: 500 nM; relative to DMSO; read-out: Residual enzymatic activity
T36 construct: purchased Reaction Biology Corporation
In short: as §1

[37] = biological target: T37, CDK1/cyclin E (Homo sapiens, UniProt P06493); settings: 500 nM; relative to DMSO; read-out: Residual enzymatic activity
T37 construct: purchased Reaction Biology Corporation
T37 sequence (P06493 whole entry): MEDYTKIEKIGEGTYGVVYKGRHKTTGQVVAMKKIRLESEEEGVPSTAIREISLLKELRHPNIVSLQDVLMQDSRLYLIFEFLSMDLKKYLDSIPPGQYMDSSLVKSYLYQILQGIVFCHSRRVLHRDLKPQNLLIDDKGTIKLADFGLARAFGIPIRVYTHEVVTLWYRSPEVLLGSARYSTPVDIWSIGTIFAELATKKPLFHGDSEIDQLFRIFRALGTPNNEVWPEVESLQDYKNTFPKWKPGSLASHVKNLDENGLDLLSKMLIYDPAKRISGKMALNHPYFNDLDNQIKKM
T37 sequence (P24864 whole entry partner): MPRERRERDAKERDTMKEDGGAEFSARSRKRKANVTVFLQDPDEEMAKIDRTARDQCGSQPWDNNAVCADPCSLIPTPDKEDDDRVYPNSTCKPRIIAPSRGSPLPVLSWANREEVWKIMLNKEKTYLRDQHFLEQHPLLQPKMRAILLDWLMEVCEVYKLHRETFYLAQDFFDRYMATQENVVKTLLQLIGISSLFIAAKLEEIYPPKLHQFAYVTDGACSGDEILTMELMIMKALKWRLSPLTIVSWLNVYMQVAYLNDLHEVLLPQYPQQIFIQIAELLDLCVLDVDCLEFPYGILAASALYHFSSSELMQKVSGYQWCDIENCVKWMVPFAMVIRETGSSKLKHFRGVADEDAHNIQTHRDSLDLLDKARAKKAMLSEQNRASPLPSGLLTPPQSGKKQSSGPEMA
In short: as §1

[38] = biological target: T38, MARK4 (Homo sapiens, UniProt Q96L34); settings: 500 nM; relative to DMSO; read-out: Residual enzymatic activity
T38 construct: purchased Reaction Biology Corporation
In short: as §1

[39] = biological target: T39, TRKB (Homo sapiens, UniProt Q16620); settings: 500 nM; relative to DMSO; read-out: Residual enzymatic activity
T39 construct: purchased Reaction Biology Corporation
In short: as §1

[40] = biological target: T40, ALK4/ACVR1B (Homo sapiens, UniProt P36896); settings: 500 nM; relative to DMSO; read-out: Residual enzymatic activity
T40 construct: purchased Reaction Biology Corporation
In short: as §1

Question: `COc1cc(Nc2ncc(F)c(Nc3ccc4c(n3)NC(=O)C(C)(C)O4)n2)cc(OC)c1OC` [R406, reference compound] was tested. Which remaining activity at 0.5 µM [1] did it give?
Answer: Its remaining activity at 0.5 µM is 81.7%.

Question: And the remaining activity at 0.5 µM [2]?
Answer: The remaining activity at 0.5 µM was 97.7%.

Question: What about the remaining activity at 0.5 µM [3] of the same compound?
Answer: Its remaining activity at 0.5 µM is 80.5%.

Question: And the remaining activity at 0.5 µM [4]?
Answer: The remaining activity at 0.5 µM was 65.2%.

Question: What about the remaining activity at 0.5 µM [5] of the same compound?
Answer: Its remaining activity at 0.5 µM is 41%.

Question: What about the remaining activity at 0.5 µM [6] of the same compound?
Answer: The remaining activity at 0.5 µM was 79.6%.

Question: What about the remaining activity at 0.5 µM [7] of the same compound?
Answer: The remaining activity at 0.5 µM was 12.4%.

Question: What about the remaining activity at 0.5 µM [8] of the same compound?
Answer: Its remaining activity at 0.5 µM is 89.2%.

Question: What about the remaining activity at 0.5 µM [9] of the same compound?
Answer: The remaining activity at 0.5 µM was 81.6%.

Question: What about the remaining activity at 0.5 µM [10] of the same compound?
Answer: Its remaining activity at 0.5 µM is 77.5%.

Question: What about the remaining activity at 0.5 µM [11] of the same compound?
Answer: Its remaining activity at 0.5 µM is 45.6%.

Question: And the remaining activity at 0.5 µM [12]?
Answer: The remaining activity at 0.5 µM was 75.3%.

Question: What about the remaining activity at 0.5 µM [13] of the same compound?
Answer: Its remaining activity at 0.5 µM is 52.1%.

Question: And the remaining activity at 0.5 µM [14]?
Answer: Its remaining activity at 0.5 µM is 49.1%.

Question: And the remaining activity at 0.5 µM [15]?
Answer: Its remaining activity at 0.5 µM is 97.2%.

Question: What about the remaining activity at 0.5 µM [16] of the same compound?
Answer: The remaining activity at 0.5 µM was 91.9%.

Question: And the remaining activity at 0.5 µM [17]?
Answer: The remaining activity at 0.5 µM was 2.5%.

Question: What about the remaining activity at 0.5 µM [18] of the same compound?
Answer: Its remaining activity at 0.5 µM is 90.5%.

Question: And the remaining activity at 0.5 µM [19]?
Answer: The remaining activity at 0.5 µM was 101%.

Question: What about the remaining activity at 0.5 µM [20] of the same compound?
Answer: The remaining activity at 0.5 µM was 50.8%.

Question: What about the remaining activity at 0.5 µM [21] of the same compound?
Answer: Its remaining activity at 0.5 µM is 96.8%.

Question: And the remaining activity at 0.5 µM [22]?
Answer: Its remaining activity at 0.5 µM is 107%.

Question: And the remaining activity at 0.5 µM [23]?
Answer: The remaining activity at 0.5 µM was 39.4%.

Question: And the remaining activity at 0.5 µM [24]?
Answer: The remaining activity at 0.5 µM was 106%.

Question: What about the remaining activity at 0.5 µM [25] of the same compound?
Answer: The remaining activity at 0.5 µM was 83.5%.

Question: What about the remaining activity at 0.5 µM [26] of the same compound?
Answer: The remaining activity at 0.5 µM was 30.7%.

Question: What about the remaining activity at 0.5 µM [27] of the same compound?
Answer: The remaining activity at 0.5 µM was 96.4%.

Question: And the remaining activity at 0.5 µM [28]?
Answer: The remaining activity at 0.5 µM was 60.9%.

Question: And the remaining activity at 0.5 µM [29]?
Answer: Its remaining activity at 0.5 µM is 85.7%.

Question: And the remaining activity at 0.5 µM [30]?
Answer: The remaining activity at 0.5 µM was 95.6%.

Question: What about the remaining activity at 0.5 µM [31] of the same compound?
Answer: Its remaining activity at 0.5 µM is 68.2%.

Question: And the remaining activity at 0.5 µM [32]?
Answer: Its remaining activity at 0.5 µM is 77.1%.

Question: What about the remaining activity at 0.5 µM [33] of the same compound?
Answer: Its remaining activity at 0.5 µM is 84.4%.

Question: And the remaining activity at 0.5 µM [34]?
Answer: The remaining activity at 0.5 µM was 28.8%.

Question: And the remaining activity at 0.5 µM [35]?
Answer: Its remaining activity at 0.5 µM is 10.5%.

Question: What about the remaining activity at 0.5 µM [36] of the same compound?
Answer: The remaining activity at 0.5 µM was 92.6%.

Question: What about the remaining activity at 0.5 µM [37] of the same compound?
Answer: The remaining activity at 0.5 µM was 76.5%.

Question: What about the remaining activity at 0.5 µM [38] of the same compound?
Answer: The remaining activity at 0.5 µM was 46.7%.

Question: And the remaining activity at 0.5 µM [39]?
Answer: The remaining activity at 0.5 µM was 28%.

Question: And the remaining activity at 0.5 µM [40]?
Answer: Its remaining activity at 0.5 µM is 133%.
